Measurements published in patent US9302993B2, “8-hydroxy quinoline derivatives” (PRANA BIOTECHNOLOGY LIMITED, priority 2002, dated 2016).
Where “and” joins values, the source holds several entries; their conditions need not be identical. Identical values can stand only once. Like-named read-outs stand apart in the source and are kept apart here.

How the values were obtained:
[1] = molecular target: T1, hydrogen peroxide generation by Aβ in the presence of copper (Homo sapiens, UniProt P05067); experiment: Fluorometric H2O2 assay (Assay 1); format: biochemical; details: Aβ 1-42 with Cu-Gly, DCF/HRP, 37 C 60 min; several values in one cell = repeat determinations; read-out: Peroxide IC50
T1 construct: The reaction solutions contained Aβ 1-42 at concentrations in the range of 50 nM to 1 μM
Protocol: Assay 1. Fluorometric H2O2 Assay
A fluorometric assay was used to test the ability of a test compound to inhibit hydrogen peroxide generation by Aβ in the presence of copper based on dichlorofluoroscein diacetate (DCF; Molecular Probes, Eugene Oreg.). The DCF solution (5 mM) in 100% dimethyl sulphoxide (previously purged with argon for 2 hr at 20° C.) was deacetylated in the presence of 0.25M NaOH for 30 min and neutralised at pH 7.4 to a final concentration of 1 mM. Horseradish peroxidase (HRP) stock solution was prepared to 1 μM at pH 7.4. The reactions were carried out in PBS, pH 7.4 in a 96 well plate (total volume=250 μl/well). The reaction solutions contained Aβ 1-42 at concentrations in the range of 50 nM to 1 μM, copper-glycine chelate (Cu-Gly), was prepared by adding CuCl2 to glycine in the ratio of 1:6 and added to the Aβ in the proportion 2Cu-Gly: 1Aβ), reducing agents including dopamine (5 μM) or ascorbic acid, deacetylated DCF 100 μM, and HRP, 0.1 μM. […] The reaction mixture was incubated at 37 C for 60 min. […] H2O2 concentration may be established by comparing fluorescence with the H2O2 standards. Inhibition of AB H2O2 production was assayed by including a given concentration of test compound(s) in the test wells.

Neuronal cortical cells = experiment: Assay for test compound cytoxicity, MTS (Assay 3(d)); format: cell-based, mouse; details: BL6J×129sv, mouse, 4 days
Protocol: (§1) Media was then replaced with Neurobasal media (Invitrogen Life Technologies) and B27 supplements (Invitrogen Life Technologies). Cultures were maintained at 37° C. in 5% CO2. Prior to experimentation, the culture medium was replaced with Neurobasal media and B27 minus antioxidants (Invitrogen Life Technologies).
Cell viability is determined using the MTS assay. Culture medium is […] replaced with fresh neurobasal medium plus B27 supplements minus antioxidants. 1/10th volume MTS solution (Cell Titre 96 Aqueous One, Promega Corporation) and incubated at 37° C., 2 hrs. 200 microliter aliquots are measured with a spectrophotometer at 560 nm.
(d) Assay for Test Compound Cytoxicity
Neuronal cortical cells were cultured for five days as per Assay 2 in NB media and B27 supplement.
On day six the test compounds were added to the neuronal cell cultures in NB media and B27 supplement minus antioxidants.
Test compounds were dissolved in 100% DMSO to a concentration of 2.5 mM (10 mM if excess compound was weighed out per vial—then diluted to 2.5 mM). […] Test compounds were not added directly to cells, instead they were added to a 48 well ‘Drug Plate’ as comprised below:
(§2) The Drug Plate was incubated at 37° C. for 15 mins. 200 ul of each well was added in triplicate to the corresponding cell plate. The cell plate was incubated at 37 C, for 4 days.
On completion of the assay, 1/10 volume MTS was added per well of plate (ie 25 ul/250 ul). The plates were incubated at 37 C for 2 hrs, and then absorbance was read at 560 nm.

[2] = system: Aβ in extract of tissue from post mortem human AD brain; experiment: Human brain amyloid solubilisation assay (Assay 9, BAS); format: biochemical
Protocol: Assay 9. Human Brain Amyloid Solubilisation Assay
This assay was performed in order to assess the ability of a test compound to mobilise Aβ from the insoluble to the soluble phase of an extract of tissue from post mortem human AD brain.
Up to 0.5 g of plaque-bearing cortex without meninges was homogenized using a DIAX 900 homogenizer (Heudolph and Co, Kelheim, Germany) or other suitable device for three 30-second periods at full speed in 2 ml of ice-cold phosphate-buffered saline, pH 7.4. To obtain the phosphate-buffered saline-extractable fraction, the homogenate was centrifuged at 100,000×g for 30 min and the supernatant removed. Alternatively, the tissue was freeze dried then pulverised to form a powder which was then weighed out into aliquots for extraction as above. Supernatant, either freeze-dried and resuspended or in unconcentrated form, was dissolved in 200 μl of Tris-Tricine sodium dodecyl sulfate (SDS) sample buffer pH 8.3 containing 8% SDS, 10% 2-mercaptoethanol. Aliquots (10 μl) were then boiled for 10 minutes before SDS-polyacrylamide gel electrophoresis. The insoluble fraction of the cortical samples was obtained by resuspending the initial pelleted sample in 1 ml of phosphate-buffered saline. A 50-μl aliquot of this suspension was then boiled in […] of sample buffer as above.
Tris-Tricine polyacrylamide gel electrophoresis was performed by loading appropriately diluted samples on to 10% to 20% gradient gels (Novex, San Diego, Calif.) followed by transfer on to 0.2-μm nitrocellulose membrane (Bio-Rad, Hercules, Calif.). Aβ was detected by using monoclonal antibody W02, which detects residues 5 through 8, […] (or another suitable antibody) in conjunction with horseradish peroxidase-conjugated rabbit anti-mouse IgG (Dako, Denmark), and visualized by using enhanced chemiluminescence (eg ECL; Amersham Life Science, Buckinghamshire, UK). Each gel included three lanes containing 0.5, 1, and 2 ng of synthetic Aβ40 (Keck Laboratory, Yale University, New Haven, Conn.) as reference standards.
Blot films were scanned by using a suitable imaging system such as the UVP gel documentation system, and densitometry performed using suitable software, eg UVP Labworks. The dynamic range of the film/scanner was determined by using a step tablet (No. 911ST600, Kodak, Rochester N.Y.), a calibrated film exposed by the manufacturer to provided steps of known increasing intensity. The quantifiable range of signal intensity for densitometric analysis of the mono- and dimeric Aβ bands was based on the comparison with a curve obtained by scanning and densitometry of the step tablet.
All samples were analysed at least twice, and gel loadings and dilutions were adjusted to fit within the quantifiable region of the standard curve. […] The insoluble Aβ being comprised of the pelletable fraction derived from the insoluble amyloid plaque from the above cortical samples and the soluble fraction comprising monomeric and/or oligomeric soluble Aβ.

[3] = system: Neuronal cortical cells treated with Aβ1-42; experiment: Assay for Aβ neurotoxicity and Aβ neuroprotection (Assay 3(c)); format: cell-based, mouse; details: 20 uM Aβ1-42, 4 days, MTS
Protocol: as §1
(c) Assay for Aβ Neurotoxicity and Aβ Neuroprotection
Neuronal cortical cells were cultured for five days as per Assay 2. On day six the neurobasal (NB) media (Invitrogen Life Technologies) and B27 supplement (Invitrogen Life Technologies) were replaced with NB media and B27 supplement (no antioxidants). On day six, test compounds were individually added to the neuronal cell cultures:
Aβ was initially dissolved in 20 mM NaOH to a concentration of 1 mM and sonicated for 5 minutes. The peptide was then diluted in H2O and 10×PBS to a final concentration of 200 uM Aβ in 1×PBS. The peptide was again sonicated for 5 minutes and then spun at 14000 rpm for 5 min and transferred to a fresh tube.
The test compounds were dissolved in 100% DMSO to a concentration of 2.5 mM (10 mM if excess compound was weighed out per vial—then diluted to 2.5 mM). […] Test compounds were not added directly to cells, instead they were added to a 48 well ‘Drug Plate’ as comprised below:
as §2
On the 4th day after treating the cells the assay is completed by adding MTS to the cells.

[4] = solubilising plaques relative to PBS

T1 sequence (P05067 672-713 limits assumed): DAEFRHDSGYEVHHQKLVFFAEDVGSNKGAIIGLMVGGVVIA

O=S(=O)(O)c1cc(I)c(O)c2ncccc12 [compound 43]
IC50 [1]: 600 nM
Viable 10 uM (Neuronal cortical cells): 91.02
BAS Score [2, 4]: −

Nc1ccc(O)c2ncccc12 [compound 44]
Viable 10 uM (Neuronal cortical cells): 71.05
BAS Score [2]: +

Oc1c(I)cc(I)c2cccnc12 [compound 46]
IC50 [1]: 1000 nM
Viable 10 uM (Neuronal cortical cells): 91.97
BAS Score [2, 4]: −

Oc1c(Br)cc(Br)c2cccnc12 [compound 47]
IC50 [1]: 900 nM
Test Compound Cytoxicity 1 uM (Neuronal cortical cells): 88
Test Compound Cytoxicity 10 uM (Neuronal cortical cells): 86
Viable 10 uM (Neuronal cortical cells): 93.59
% inhibition Abeta toxicity [3]: 13%

Oc1ccc(Cl)c2cccnc12 [compound 48]
IC50 [1]: 800 nM
Viable 10 uM (Neuronal cortical cells): 85
BAS Score [2, 4]: −

Oc1c(-c2ccccc2)cc(-c2ccccc2)c2cccnc12 [compound 809]
IC50 [1]: < 4000 nM and 1800 nM
Viable 10 uM (Neuronal cortical cells): 26.31
BAS Score [2, 4]: +

CN(C)c1ccc(-c2cc(Cl)c3cccnc3c2O)cc1 [compound 851]
IC50 [1]: < 700 nM
BAS Score [2, 4]: −

Cc1ccccc1-c1cc(-c2ccccc2C)c2cccnc2c1O [compound 852]
Viable 10 uM (Neuronal cortical cells): 33.52
BAS Score [2, 4]: +

Cc1cccc(-c2cc(Cl)c3cccnc3c2O)c1 [compound 859]
BAS Score [2, 4]: +

Oc1c(I)cc(-c2ccccc2C(F)(F)F)c2cccnc12 [compound 860]
BAS Score [2, 4]: +

Cc1ccccc1-c1cc(I)c(O)c2ncccc12 [compound 861]
IC50 [1]: 910 nM
Viable 10 uM (Neuronal cortical cells): 37.83
BAS Score [2, 4]: +

COc1ccccc1-c1cc(-c2ccccc2OC)c2cccnc2c1O [compound 862]
BAS Score [2, 4]: +

COc1ccccc1-c1cc(I)c(O)c2ncccc12 [compound 863]
Viable 10 uM (Neuronal cortical cells): 34.97
BAS Score [2, 4]: +

O=C(NCc1ccccn1)c1ccc2cccc(O)c2n1 [compound 949]
IC50 [1]: 900 nM
Viable 10 uM (Neuronal cortical cells): 84.82
BAS Score [2, 4]: +

O=C(Nc1ccccc1O)c1ccc2cccc(O)c2n1 [compound 951]
IC50 [1]: 1430 nM
Viable 10 uM (Neuronal cortical cells): 91.86
BAS Score [2, 4]: −

O=C(NCCc1cnc[nH]1)c1cc(O)c2cccc(O)c2n1 [compound 954]
IC50 [1]: 180 nM
Viable 10 uM (Neuronal cortical cells): 104.9
BAS Score [2, 4]: −

O=C(NCc1ccccn1)c1cc(O)c2cccc(O)c2n1 [compound 955]
IC50 [1]: 260 nM and 180 nM
Viable 10 uM (Neuronal cortical cells): 100
BAS Score [2, 4]: −

NCCNC(=O)c1ccc2cccc(O)c2n1 [compound 957]
Viable 10 uM (Neuronal cortical cells): 95.86
BAS Score [2, 4]: +

N=C(N)NCc1ccc2cccc(O)c2n1 [compound 966]
IC50 [1]: 4300 nM
Viable 10 uM (Neuronal cortical cells): 88.61
BAS Score [2, 4]: +

Oc1c(-c2ccccc2C(F)(F)F)cc(-c2ccccc2C(F)(F)F)c2cccnc12 [compound 974]
IC50 [1]: 600 nM
BAS Score [2, 4]: +

Oc1c(-c2ccccc2F)cc(-c2ccccc2F)c2cccnc12 [compound 975]
IC50 [1]: 3200 nM
BAS Score [2, 4]: +

CC(=O)c1ccc2cccc(O)c2n1 [compound 976]
IC50 [1]: 3700 nM
BAS Score [2, 4]: −

O=C(CNC(=O)c1cc(O)c2cccc(O)c2n1)NCc1ccccn1 [compound 988]
Viable 10 uM (Neuronal cortical cells): 93.27
BAS Score [2, 4]: −

Oc1cccc2ccc(CNCCc3c[nH]cn3)nc12 [compound 989]
IC50 [1]: 420 nM
Viable 10 uM (Neuronal cortical cells): 43.24
BAS Score [2, 4]: −

Oc1cccc2ccc(CNCc3ccccn3)nc12 [compound 991]
BAS Score [2, 4]: +

Oc1cccc2ccc(CN(CCc3c[nH]cn3)Cc3nccs3)nc12 [compound 1002]
IC50 [1]: 390 nM
Test Compound Cytoxicity 1 uM (Neuronal cortical cells): 82
Test Compound Cytoxicity 10 uM (Neuronal cortical cells): 34
% inhibition Abeta toxicity [3]: 17%

Oc1cccc2ccc(CN(Cc3ccccn3)Cc3nccs3)nc12 [compound 1003]
IC50 [1]: 550 nM
Test Compound Cytoxicity 1 uM (Neuronal cortical cells): 97
Test Compound Cytoxicity 10 uM (Neuronal cortical cells): 38
% inhibition Abeta toxicity [3]: 17%

CSc1ccccc1-c1ccc2cccc(O)c2n1 [compound 1005]
IC50 [1]: 2400 nM
Test Compound Cytoxicity 1 uM (Neuronal cortical cells): 100
Test Compound Cytoxicity 10 uM (Neuronal cortical cells): 95
% inhibition Abeta toxicity [3]: 1%

Cc1cccc(-c2ccc3cccc(O)c3n2)n1 [compound 1007]
IC50 [1]: 580 nM
Test Compound Cytoxicity 1 uM (Neuronal cortical cells): 90
Test Compound Cytoxicity 10 uM (Neuronal cortical cells): 43
% inhibition Abeta toxicity [3]: 9%

Oc1cccc2ccc(CN(CCc3c[nH]cn3)Cc3c[nH]cn3)nc12 [compound 1008]
IC50 [1]: 260 nM
Test Compound Cytoxicity 1 uM (Neuronal cortical cells): 86
Test Compound Cytoxicity 10 uM (Neuronal cortical cells): 28
% inhibition Abeta toxicity [3]: 9%

Oc1cccc2ccc(CN(CCc3c[nH]cn3)Cc3ccccn3)nc12 [compound 1009]
IC50 [1]: 320 nM
Test Compound Cytoxicity 1 uM (Neuronal cortical cells): 94
Test Compound Cytoxicity 10 uM (Neuronal cortical cells): 32
% inhibition Abeta toxicity [3]: 16%

Oc1cccc2ccc(CN(Cc3ccccn3)Cc3ccccn3)nc12 [compound 1010]
IC50 [1]: 330 nM
Test Compound Cytoxicity 1 uM (Neuronal cortical cells): 88
Test Compound Cytoxicity 10 uM (Neuronal cortical cells): 27
% inhibition Abeta toxicity [3]: 12%

Oc1cccc2ccc(CN(Cc3ccccn3)Cc3c[nH]cn3)nc12 [compound 1011]
IC50 [1]: 320 nM
Test Compound Cytoxicity 1 uM (Neuronal cortical cells): 89
Test Compound Cytoxicity 10 uM (Neuronal cortical cells): 31
% inhibition Abeta toxicity [3]: 21%

O=C(c1ccc2cccc(O)c2n1)N(Cc1ccccn1)Cc1ccccn1 [compound 1020]
IC50 [1]: 1300 nM
Test Compound Cytoxicity 1 uM (Neuronal cortical cells): 85
Test Compound Cytoxicity 10 uM (Neuronal cortical cells): 83
% inhibition Abeta toxicity [3]: 4%
